Like-named read-outs stand apart in the source and are kept apart here.
Assays:
[1] = molecular target: T1, human androgen receptor (hAR) (Homo sapiens, UniProt P10275); experiment: Functional response (transactivation) test in HALP2 cells (HeLa stably expressing hAR and ARE-luciferase reporter); assay type: cell-based; conditions: for Emax: HeLa, read-out: % effect relative to DHT (100%)
T1 construct: expressed in transfected cells
T1 sequence (P10275 1-920): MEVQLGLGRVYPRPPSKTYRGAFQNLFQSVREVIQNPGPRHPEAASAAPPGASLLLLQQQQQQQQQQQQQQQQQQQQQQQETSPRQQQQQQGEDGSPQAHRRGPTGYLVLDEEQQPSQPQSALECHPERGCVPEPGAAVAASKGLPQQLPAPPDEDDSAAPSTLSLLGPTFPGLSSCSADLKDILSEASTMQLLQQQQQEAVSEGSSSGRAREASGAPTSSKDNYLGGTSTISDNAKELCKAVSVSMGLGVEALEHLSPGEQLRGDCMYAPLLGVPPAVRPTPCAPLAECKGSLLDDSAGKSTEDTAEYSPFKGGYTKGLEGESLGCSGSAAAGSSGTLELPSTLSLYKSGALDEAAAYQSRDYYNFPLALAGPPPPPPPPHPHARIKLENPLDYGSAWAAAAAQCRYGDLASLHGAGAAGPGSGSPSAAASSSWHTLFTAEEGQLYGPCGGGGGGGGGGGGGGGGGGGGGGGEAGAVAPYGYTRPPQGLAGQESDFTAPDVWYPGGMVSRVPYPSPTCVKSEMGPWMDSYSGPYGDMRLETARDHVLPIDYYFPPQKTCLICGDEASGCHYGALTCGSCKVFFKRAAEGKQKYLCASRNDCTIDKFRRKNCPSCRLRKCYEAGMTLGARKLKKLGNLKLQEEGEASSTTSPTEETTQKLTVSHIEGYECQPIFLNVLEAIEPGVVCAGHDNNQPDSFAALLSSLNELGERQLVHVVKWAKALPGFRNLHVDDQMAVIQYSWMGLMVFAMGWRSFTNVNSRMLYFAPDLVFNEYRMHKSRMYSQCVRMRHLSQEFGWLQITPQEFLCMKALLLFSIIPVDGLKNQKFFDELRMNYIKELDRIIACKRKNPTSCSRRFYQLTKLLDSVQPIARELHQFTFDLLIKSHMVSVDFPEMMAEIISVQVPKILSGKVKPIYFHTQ
From the text: This test constitutes a method of identifying pure or partial agonists which mimic the effects of natural hormones, such as DHT (dihydrotestosterone) in the present case or, on the other hand, antagonists which inhibit them.
For this transactivation test, plasmids encoding a reporter gene and the human androgen receptor (hAR) are introduced together by transfection into the HeLa cell line. The reporter plasmid contains luciferase cDNA under the control of the AREs contained in the promoter sequences of the probasin gene (3xpbAREminicoll-luciferase/pGL3-puro). The expression of the reporter gene constitutes an indication of the transcriptional activity of hAR. It also encodes a protein allowing the cells expressing it to resist a treatment with puromycin. The plasmid encoding hAR contains the cDNA of hAR under the control of the Cytomegalovirus (CMV) promoter. It also encodes a protein allowing the cells expressing it to resist a treatment with neomycin. The treatment of cells with increasing amounts of potentially agonistic compounds will increase the expression of the reporter gene. To detect antagonists, on the other hand, increasing doses of test compounds are tested in the presence of […] of DHT. The expression of the reporter gene, which is constant for each dose of DHT, decreases when the concentration of the test compounds increases.
The functional response test is conducted on 96-well plates. The HALP2 cells are seeded (20,000 cells per well) in culture medium (DMEM with phenol red, 1% de Pen-Strep, 1% of non-essential amino acids, 10% of fetal bovine serum, 400 μg/mL Geneticin and 0.150 puromycin) on day 1. After 24 hours incubating at 37° C., 5% CO2, high humidity (day 2) the medium is removed and refreshed with test medium (DMEM without phenol red supplemented, 1% de Pen-Strep, 1% of non-essential amino acids and 5% of desteroidised foetal bovine serum). After another 24 hours incubating at 37° C., 5% CO2, high humidity (day 3), the medium is renewed once more before the phase of stimulation.
The cells are placed in contact with the compounds for 24 hours at 37° C., 5% CO2, high humidity. On day 4 the medium is then removed and the luciferase activity reading reagent is placed in contact with the cells in accordance with the manufacturer's instructions (SteadyLite, Perkin-Elmer). The luminescence produced is detected on an Envision reader (Perkin-Elmer). […]
The determination of the relative agonism/antagonism of a compound is obtained by comparing the maximal activation obtained with said compound and the activation obtained with DHT alone (100%).

[2] = system: castrated immature young rats; experiment: Adapted model of Hershberger's test; assay type: in vivo, Sprague Dawley rats; conditions: Rattus norvegicus, po, 96 h, ORX control = 0%, SHAM control = 100%, per os daily for 4 days, dose tested 10 mg/kg
Method: The selective modulating activity of the androgen receptor is tested in a model of castrated immature young rats. This model, which is widely recognised for evaluating the anabolic effects of androgen compounds on the muscles and on the prostate, has been described by Hershberger et al. 1953 Proc. Soc. Expt. Biol. Med. 83:175.
The method is based on the measurement of the well-known effects of androgens on the growth of the muscles and the accessory male sex organs in animals, and also in men. The consequences of castration appear in the form of a rapid involution and atrophy of the prostate and the seminal vesicles and of the anus-lifting muscle (levator ani). This effect may be completely compensated by an exogeneous administration of androgen, in particular of testosterone. The model is thus used to determine the capacity of the tested molecules to maintain the weight of the accessory sex and muscle organs in immature castrated rats, and therefore their androgenic efficacy.
Immature young Sprague Dawley rats (4 to 5 weeks old) weighing approximately 140-160 g (Charles River, Les Oncins, FRANCE) are distributed randomly in various groups and are kept in an environment at 22±2° C. with an alternating day/night cycle of 12 hours and ad libitum access to food and drink.
On day 0 (seven days before commencement of the first treatment) the rats are weighed individually then anaesthetised with an intraperitoneal dose of Ketamine/xylazine (85/15 mg/kg, approximately 2 ml/kg). Each animal is then placed on a sterile field and the abdomen and the scrotum are disinfected with Betadine and 70% alcohol. In the case of the orchidectomised control animals (ORX), the testicles are removed via an incision in the middle of the scrotum. A sterile suture is then made to ligature the supra-testicular portion of the tissue prior to surgical section of each testicle. The groups of animals to be treated by the tested compounds are operated on in an identical manner. In the case of the intact control animals (SHAM), the testicles are similarly extracted and reintroduced delicately to their original location. The site of surgical intervention is then sutured using sterile suture thread, and the site is disinfected again by application of Betadine. Each animal is then kept under a sterile pad until it awoke, before being returned to its cage. The animals are kept in an environment at 22±2° C. with an alternating day/night cycle of 12 hours and ad libitum access to food and drink. The animals are treated with the molecules to be tested from post-surgery day 7 and until day 10 preceding sacrifice (day 11).
The rats are split into groups and treated daily from day 7 to day 10 under the conditions defined below: • 1. SHAM control group: Vehicle (PEG400/DMSO/water; 79/1/20) administered per os. • 2. ORX control group: Vehicle (PEG400/DMSO/water; 79/1/20) administered per os. • 3. Treated ORX group: The tested compounds are administered individually per os in suspension in the vehicle described above, in a dose of 10 mg/kg.
After treatment for 4 successive days, the animals are decapitated using a guillotine. The levator ani and the ventral prostate are removed and weighed individually. For comparing inter-experimental data, the weight of each organ is standardised and expressed in milligrammes per 100 g of the weight of the animal (W). For each organ, the average of the standardised weights of the ORX control group is fixed by definition at 0% and the average of the standardised weights of the SHAM control group is fixed by definition at 100%. The efficacy of each product is expressed as a percentage and calculated using the following formula: (Wtreated−WORX)/(WSHAM−WORX)×100
A subsequent ANOVA test is used for statistical analysis to identify the differences between groups.

[3] = maximal activation by the compound compared with DHT alone (100%), HALP2 cells
[4] = agonism: concentration inducing 50% of the maximum agonistic effect of the tested compound, HALP2 cells, 24 hours, read-out: EC50
[5] = levator ani weight, read-out: Anabolic activity %
[6] = ventral prostate weight, read-out: Androgenic activity % (Prostate)

CN1C(=O)N(c2ccc(C#N)c(C(F)(F)F)c2)C(=O)C1(CO)c1cccc(C#N)c1 (centres unmarked) [Example 14, 4-[4-(3-Cyanophenyl)-2,5-dioxo-4-hydroxymethyl-3-methylimidazolidin-1-yl)-2-trifluoromethylbenzonitrile]
Emax [1, 3]: 21 to 40% | EC50 [1, 4]: 101 to 500 nM | response vs control in vivo at 10 mg/kg [2, 5]: 75 to 100% | response vs control in vivo at 10 mg/kg [2, 6]: 25 to 50%

N#CCN1C(=O)N(c2ccc(C#N)c(C(F)(F)F)c2)C(=O)C1(CO)c1ccccc1 (centres unmarked) [Example 18, 4-[3-Cyanomethyl-2,5-dioxo-4-(hydroxymethyl)-4-phenylimidazolidin-1-yl]-2-trifluoromethylbenzonitrile]
Emax [1, 3]: 6 to 20% | EC50 [1, 4]: 501 to 1000 nM | response vs control in vivo at 10 mg/kg [2, 5]: 75 to 100% | response vs control in vivo at 10 mg/kg [2, 6]: 0.5 to 25%

N#Cc1ccc(N2C(=O)NC(CO)(c3ccccc3)C2=O)cc1C(F)(F)F (centres unmarked) [Example 20, 4-[2,5-Dioxo-4-hydroxymethyl-4-phenylimidazolidin-1-yl]-2-trifluoromethylbenzonitrile]
% effect relative to DHT (100%) [1, 3]: § (0-5%)

CN1C(=O)N(c2ccc(Cl)c(Cl)c2)C(=O)C1(CO)c1ccccc1 (centres unmarked) [Example 16, 1-(3,4-Dichlorophenyl)-4-hydroxymethyl-3-methyl-4-phenylimidazolidine-2,5-dione]
Emax [1, 3]: 6 to 20% | EC50 [1, 4]: 101 to 500 nM | response vs control in vivo at 10 mg/kg [2, 5]: 75 to 100% | response vs control in vivo at 10 mg/kg [2, 6]: 0.5 to 25%

CC(C)[C@H](N)C(=O)OCC1(c2ccccc2)C(=O)N(c2ccc(C#N)c(C(F)(F)F)c2)C(=O)N1C (stereo partly drawn) [Example 25, (2S)-1-[1-(4-Cyano-3-trifluoromethylphenyl)-2,5-dioxo-3-methyl-4-phenylimidazolidin-4-yl]methoxy-3-methyl-1-oxobutan-2-aminium chloride]
EC50 [1]: 11 to 100 nM | Emax [1]: 21 to 40%

CCC(O)C1(c2ccccc2)C(=O)N(c2ccc(C#N)c(C(F)(F)F)c2)C(=O)N1C (single isomer, unassigned) [Example 2, 4-[2,5-Dioxo-4-(1-hydroxypropyl)-3-methyl-4-phenylimidazolidin-1-yl]-2-trifluoromethylbenzonitrile]
Emax [1, 3]: 0 to 5%

CN1C(=O)N(c2ccc(C#N)c(C(F)(F)F)c2)C(=O)C1(COP(=O)(O)O)c1ccccc1 (centres unmarked) [Example 24, [1-(4-Cyano-3-trifluoromethylphenyl)-2,5-dioxo-3-methyl-4-phenylimidazolidin-4-yl]methyl dihydrogen phosphate]
Emax [1, 3]: 21 to 40% | EC50 [1, 4]: 0.01 to 10 nM

CN1C(=O)N(c2ccc(C#N)c(C(F)(F)F)c2)C(=O)C1(COC(=O)CCC(=O)O)c1ccccc1 (centres unmarked) [Example 26, 4-[1-(4-Cyano-3-trifluoromethylphenyl)-2,5-dioxo-3-methyl-4-phenylimidazolidin-4-yl]methoxy-4-oxobutanoic acid]
EC50 [1]: 11 to 100 nM | Emax [1]: 21 to 40%

C#CCN1C(=O)N(c2ccc(C#N)c(C(F)(F)F)c2)C(=O)C1(CO)c1ccccc1 (centres unmarked) [Example 19]
Emax [1, 3]: 6 to 20% | EC50 [1, 4]: 101 to 500 nM | response vs control in vivo at 10 mg/kg [2, 5]: 75 to 100% | response vs control in vivo at 10 mg/kg [2, 6]: 25 to 50%

Cc1cccc(C2(CO)C(=O)N(c3ccc(C#N)c(C(F)(F)F)c3)C(=O)N2C)c1 (centres unmarked) [Example 21, 4-[2,5-Dioxo-4-hydroxymethyl-3-methyl-4-(3-methylphenyl)imidazolidin-1-yl)-2-trifluoromethylbenzonitrile]
Emax [1, 3]: 6 to 20% | EC50 [1, 4]: 501 to 1000 nM | response vs control in vivo at 10 mg/kg [2, 5]: 0.5 to 25% | response vs control in vivo at 10 mg/kg [2, 6]: 0%

CN1C(=O)N(c2ccc(C#N)c(C(F)(F)F)c2)C(=O)C1(CO)c1ccc(C#N)cc1 (centres unmarked) [Example 13, 4-[4-(4-Cyanophenyl)-2,5-dioxo-4-hydroxymethyl-3-methylimidazolidin-1-yl)-2-trifluoromethylbenzonitrile]
Emax [1, 3]: 0 to 5% | response vs control in vivo at 10 mg/kg [2, 5]: 0.5 to 25% | response vs control in vivo at 10 mg/kg [2, 6]: 0.5 to 25%

CN1C(=O)N(c2ccc(C#N)c(C(F)(F)F)c2)C(=O)C1(CO)c1cccc(C(F)(F)F)c1 (centres unmarked) [Example 15, 4-[2,5-Dioxo-4-hydroxymethyl-3-methyl-4-(3-trifluoromethylphenyl)imidazolidin-1-yl)-2-trifluoromethylbenzonitrile]
Emax [1, 3]: 21 to 40% | EC50 [1, 4]: 101 to 500 nM | response vs control in vivo at 10 mg/kg [2, 5]: 25 to 50% | response vs control in vivo at 10 mg/kg [2, 6]: 0%

From patent US8383608B2, “Imidazolidine compounds as androgen receptor modulators” (Dart Therapeutics LLC, priority 2008, dated 2013)
